Measurements published in BindingDB's records for doi:10.1111/cbdd.12587 (Jiangnan University, 2015).

Each compound was assayed against T1, Tyrosine-protein phosphatase non-receptor type 1 (Homo sapiens, UniProt P18031) (assay: Colorimetric Assay). Details: pH 6.5.
T1 sequence (P18031 whole entry): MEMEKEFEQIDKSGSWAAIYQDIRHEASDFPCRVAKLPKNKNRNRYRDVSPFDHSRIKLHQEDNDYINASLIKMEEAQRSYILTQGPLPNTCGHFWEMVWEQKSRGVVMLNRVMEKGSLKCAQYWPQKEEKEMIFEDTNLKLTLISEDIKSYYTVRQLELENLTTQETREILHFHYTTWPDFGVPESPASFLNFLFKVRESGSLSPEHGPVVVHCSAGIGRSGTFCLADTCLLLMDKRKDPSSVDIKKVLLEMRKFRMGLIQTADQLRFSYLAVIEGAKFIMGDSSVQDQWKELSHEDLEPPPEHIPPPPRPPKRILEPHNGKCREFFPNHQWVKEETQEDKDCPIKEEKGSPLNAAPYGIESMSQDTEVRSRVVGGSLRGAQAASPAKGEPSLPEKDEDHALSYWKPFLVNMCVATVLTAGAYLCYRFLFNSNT
Protocol: Briefly, the tested compounds were solubilized in DMSO and serially diluted into concentrations for the inhibitory test. The assays were carried out in a final volume of 100 µL containing 50 mmol/L MOPS, pH 6.5, 2 mmol/L pNPP, 21 nmol/L GST-PTP1B or GST-TCPTP, and 2% DMSO, and the catalysis of pNPP was continuously monitored on a SpectraMax 340 microplate reader at 405 nm for 3 min at 30 °C

IC50 [µM]	SMILES
2.87	O=C(c1ccc(-c2ccc(C(=O)N3CCC4(CC3)CC(c3ccccc3)=NO4)cc2)cc1)N1CCC2(CC1)CC(c1ccccc1)=NO2 [Biphenyl-4,4'-diylbis((3-phenyl-1-oxa-2,8-diazaspiro[4.5]dec-2-en-8-yl)methanone) (6f)]
5.33	O=C(c1ccc(-c2ccc(C(=O)N3CCC4(CC3)CC(c3cccc(F)c3)=NO4)cc2)cc1)N1CCC2(CC1)CC(c1cccc(F)c1)=NO2 [Biphenyl-4,4'-diylbis((3-(3-fluorophenyl)-1-oxa-2,8-diazaspiro[4.5]dec-2-en-8-yl)methanone) (6h)]
4.96	O=C(c1ccc(-c2ccc(C(=O)N3CCC4(CC3)CC(c3ccccc3F)=NO4)cc2)cc1)N1CCC2(CC1)CC(c1ccccc1F)=NO2 [Biphenyl-4,4'-diylbis((3-(2-fluorophenyl)-1-oxa-2,8-diazaspiro[4.5]dec-2-en-8-yl)methanone) (6g)]
